From patent publication US6153611A, “Piperazinyl-cyclohexanes and cyclohexenes” (Bristol-Myers Squibb Company, priority 1993, dated 2000)
Read-outs that look alike come from different tables or passages of the source.

Experiments:
Dopamine D2 = molecular target: T1, Dopamine D2 (Rattus norvegicus, UniProt P61169); experiment: Dopamine D2 Binding Assay ([3H]Spiperone, corpus striatum membranes); set-up: species or system male Sprague-Dawley rats; conditions: [3H]Spiperone 0.1 nM, 37° C., 15 min
T1 construct: The corpus striatum was crudely dissected and frozen on dry ice; from tissue; host or cells: rat corpus striatum membranes (male Sprague-Dawley rats, Charles River)
Description: Activity at D2 sites is measured using the screening process set out in Example 67.
Dopamine D2 Binding Assay
Dopamine D2 affinity was determined according to the procedures of Burt, Creese and Snyder [Molecular Pharmacology 12,800 (1976); Science 196, 326 (1977); Science 192, 481 (1976)]. Briefly, male Sprague-Dawley rats (Charles River) were decapitated, brains rapidly removed and chilled in ice-cold 50 mM Hepes/KOH buffer (pH 7.4, 20° C.). The corpus striatum was crudely dissected and frozen on dry ice. Tissue was pooled and stored at -80° C. until use. On the day of assay, tissue was thawed in 20 ml ice-cold Hepes/KOH buffer, and homogenized with a polytron for 15 sec at 18,000 rpm. The homogenate was centrifuged (39,000×g, 10 min, at 4° C.). The supernatant was discarded and the pellet rehomogenized in ice-cold Hepes/KOH buffer and recentrifuged as described previously. The supernatant was again discarded and the pellet resuspended (1:100) in ice-cold Hepes/KOH buffer (pH 7.4, 20° C., containing 120 mM NaCl, 5 mM KCl, 1 mM MgCl2, 0.1% (w/v) ascorbic acid, and 10 μM pargylline, and stored on ice until assay. The binding assay (1 ml total volume) was performed in duplicate and initiated by the addition of 800 μl membrane homogenate to tubes containing 100 μl [^3 H]Spiperone (0.1 nM final concentration), and 100 μl competitor, buffer, or butaclamol, which was used to define the non-specific binding. The assay was incubated at 37° C. for 15 min, afterwhich the assay was terminated by rapid filtration.
In vitro IC50 test values for binding to the D2 receptor were determined for representative compounds of Formula I by the method of Burt, Creese, and Snyder, Molecular Pharmacology 12, 800 (1976); Creese, Burt, and Snyder, Science 196, 326 (1977); and Creese, Burt and Snyder, Science 192, 481 (1976). Test IC50 values greater than 1,000 nM are considered to reflect inactivity at the D2 receptor, indicating the risk of extrapyramidal side effects is small.

sigma receptor = molecular target: T2, sigma receptor (Cavia porcellus, UniProt Q60492); experiment: Sigma binding (method of Tam and Cook)
T2 construct: from tissue
Description: In vitro IC50 test values for binding to the sigma receptor were determined for representative compounds of Formula I by the method of Tam and Cook [see: Tam, S. W., and Cook, L: Proc. Natl. Acad. Sci. USA 81, 5618-5621 (1984)] with only minor modifications. Test IC50 values lower than 100 nM are considered to reflect activity at the sigma receptor.

brain ischemia = experiment: Anoxic Nitrogen Test in Rats; type: in vivo, male Sprague-Dawley rats; conditions: Rattus norvegicus, sc, subcutaneously, 2 hr survival, read-out: Nitrogen Anoxia % Survival
Text: Most specifically, administration of the compounds of Formula I results in protection against hypoxia-induced death in an anoxic nitrogen test in rats (Example 66). The test identifies the neuro-protective effects of substances against lethal brain damages produced by a lack of oxygen consumption (anoxia). In this test procedure, control animals exposed for one minute to a pure nitrogen atmosphere will expire because of respiratory failure caused by irreversible damage to the brain respiratory center.
Anoxic Nitrogen Test in Rats
The animals utilized are male Sprague-Dawley rats (200-400 grams) housed four animals per cage in a normal controlled environment with unlimited access to food and water. Usually there are 8 animals per dose, however, […] can be employed to obtain an initial impression of a compound's activity. Animals are parenterally or orally administered the vehicle or test compound 30 minutes before the anoxic insult. The anoxic episode consists of placing up to 8 animals in the sealed test chamber (10" l×10" w×6" h) continuously flushed with pure N2 (4.5 grade) at a flow rate of 5 SCFM for 1 min. Animals are then promptly removed to normal atmosphere and observed for the 2 hour period. Typically, animals become disoriented within 15 sec after which they remain motionless.
Even though the heart is still beating after the N2 exposure, all control animals fail to gasp when removed from the chamber and usually expire within 3 minutes. Drug treated animals, however, still gasp or start gasping after being removed, which is a good indication that the animals will survive the N2 exposure [see Wauquire, A., et al: Arch. Int. Pharmacodyn., 249, 330-334 (1981); Wauquier, A., et al: Drug Dev. Res., 8, 373-380 (1986)]. Results are recorded as:
(Number of animals surviving (2 hr))/(Number of animals tested)×100%
The anoxic nitrogen test is an in vivo model of brain ischemia in rats [see: Wauquire, A., et al: Arch. Int. Pharmacodyn., 249, 330-334 (1981); Wauquier, A., et al: Drug Dev. Res., 8, 373-380 (1986)]. Compounds of the present invention are active in this in vivo model of brain ischemia when given subcutaneously in the doses indicated in Table 2, thus providing additional evidence that the present compounds will be useful in the treatment of brain ischemia.

T2 sequence (Q60492 whole entry): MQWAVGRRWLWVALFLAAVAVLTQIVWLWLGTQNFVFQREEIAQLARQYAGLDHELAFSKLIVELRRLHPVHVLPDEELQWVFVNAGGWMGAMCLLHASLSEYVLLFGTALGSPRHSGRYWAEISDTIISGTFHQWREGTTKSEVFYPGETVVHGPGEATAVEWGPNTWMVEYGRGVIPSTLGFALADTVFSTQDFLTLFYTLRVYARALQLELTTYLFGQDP
T1 sequence (P61169 whole entry): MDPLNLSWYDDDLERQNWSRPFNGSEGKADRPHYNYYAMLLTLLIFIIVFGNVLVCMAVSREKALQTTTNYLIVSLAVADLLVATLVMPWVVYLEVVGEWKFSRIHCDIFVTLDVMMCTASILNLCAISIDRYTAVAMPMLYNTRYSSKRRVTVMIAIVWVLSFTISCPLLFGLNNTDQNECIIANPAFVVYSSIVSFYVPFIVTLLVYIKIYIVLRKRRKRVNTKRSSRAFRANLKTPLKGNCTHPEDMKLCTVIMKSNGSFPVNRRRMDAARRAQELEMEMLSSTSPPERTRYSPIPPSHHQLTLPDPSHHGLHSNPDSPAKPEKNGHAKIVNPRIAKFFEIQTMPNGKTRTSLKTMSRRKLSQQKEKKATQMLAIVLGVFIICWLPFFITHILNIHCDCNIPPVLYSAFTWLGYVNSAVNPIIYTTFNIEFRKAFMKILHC

Compound	IC50 (Dopamine D2)	IC50 (sigma receptor)	responders at 10 mg/kg (brain ischemia; 10 & 60 mg/kg)	responders at 20 mg/kg (brain ischemia; 20 mg/kg)	responders at 20 mg/kg (brain ischemia; 20 & 40 mg/kg)	responders at 10 mg/kg (brain ischemia; 10 mg/kg)	responders at 40 mg/kg (brain ischemia)
Fc1ccc2[nH]cc(C3=CCC(N4CCN(Cc5ccccc5)CC4)CC3)c2c1 (stereo not drawn) [Example 49, 5-Fluoro-3-{4-[4-(phenylmethyl)-1-piperazinyl]-1-cyclohexen-1-yl]-1H-indole]	1000 to 10000 nM	8.6 nM	92%	–	–	–	–
Clc1ccc2[nH]cc(C3=CCC(N4CCN(Cc5ccccc5)CC4)CC3)c2c1 (stereo not drawn) [Example 50, 5-Chloro-3-{4-[4-(phenylmethyl)-1-piperazinyl]-1-cyclohexen-1-yl]-1H-indole]	10000 to 50000 nM	31.4 nM	–	100%	–	–	–
Fc1ccc2[nH]cc(C3=CCC(N4CCC(Cc5ccccc5)CC4)CC3)c2c1 (stereo not drawn) [Example 51, 5-Fluoro-3-{4-[4-(phenylmethyl)-1-piperidinyl]-1-cyclohexen-1-yl]-1H-indole]	1000 to 10000 nM	11.1 nM	–	–	67%	–	–
COc1cccc(CC2CCN(C3CC=C(c4ccc5c(c4)OCO5)CC3)CC2)c1 (stereo not drawn) [Example 52, 1-[4-(1,3-Benzodioxol-5-yl)-3-cyclohexen-1-yl]-4-[(3-methoxyphenyl)methyl]piperidine]	1000 to 10000 nM	7.4 nM	–	–	–	38%	–
Fc1ccc(F)c(CC2CCN(C3CC=C(c4ccc5c(c4)OCO5)CC3)CC2)c1 (stereo not drawn) [Example 54, 1-[4-(1,3-Benzodioxol-5-yl)-3-cyclohexen-1-yl]-4-[(2,5-difluorophenyl)methyl]piperidine]	1000 to 10000 nM	3.6 nM	–	–	–	38%	–
COc1cccc(CN2CCN(C3CC=C(c4ccc(F)cc4)CC3)CC2)c1 (stereo not drawn) [Example 60, 1-[(4-Fluorophenyl)-3-cyclohexen-1-yl]-4-[(3-methoxyphenyl)methyl]piperazine]	1000 to 10000 nM	5.2 nM	–	–	–	50%	–
Fc1ccc([C@H]2CC[C@@H](N3CCN(Cc4ccccc4)CC3)CC2)c2ccccc12 [Example 62-cis, Cis and trans 1-[4-(4-fluoro-1-naphthalenyl)-1-cyclohexyl]-4-(phenylmethyl)piperazine]	> 100000 nM	6.9 nM	–	–	–	–	63%
Fc1ccc([C@H]2CC[C@H](N3CCN(Cc4ccccc4)CC3)CC2)c2ccccc12 [Example 62-trans, Cis and trans 1-[4-(4-fluoro-1-naphthalenyl)-1-cyclohexyl]-4-(phenylmethyl)piperazine]	> 100000 nM	3.3 nM	–	–	–	–	100%
Fc1ccc([C@H]2CC[C@H](N3CCN(Cc4ccccc4)CC3)CC2)cc1 [Example 63, Trans 1-[4-(4-fluorophenyl)-1-cyclohexyl]-4-(phenylmethyl)piperazine]	1000 to 10000 nM	0.7 nM	–	–	75%	–	–
COc1cccc(CN2CCN([C@H]3CC[C@H](c4ccc(F)cc4)CC3)CC2)c1 [Example 65, Trans 1-[4-(4-fluorophenyl)-1-cyclohexyl]-4-[(3-methoxyphenyl)methyl]piperazine]	1000 to 10000 nM	3.2 nM	–	–	–	62%	–
